Data on 8 compounds can be found in ChEMBL document CHEMBL1134790, “Design, synthesis, and evaluation of novel A2A adenosine receptor agonists” (J Med Chem, 2001).

One assay has as its target Adenosine receptor A2a (Rattus norvegicus, UniProt P30543). The assay is described as follows: biochemical.
The target in the next assay is T1, Adenosine receptor A1 (Rattus norvegicus, UniProt P25099).
T1 sequence (P25099 whole entry): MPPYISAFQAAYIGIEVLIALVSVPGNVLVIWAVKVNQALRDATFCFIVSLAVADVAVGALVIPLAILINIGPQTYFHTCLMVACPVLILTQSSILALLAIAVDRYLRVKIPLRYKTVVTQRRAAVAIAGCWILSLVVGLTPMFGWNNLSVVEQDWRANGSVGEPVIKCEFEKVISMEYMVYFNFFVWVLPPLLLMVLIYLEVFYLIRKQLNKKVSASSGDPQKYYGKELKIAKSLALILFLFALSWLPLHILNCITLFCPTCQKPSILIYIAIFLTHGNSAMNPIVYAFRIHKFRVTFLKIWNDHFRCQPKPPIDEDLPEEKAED
Nature of the assay: biochemical.

SMILES strings stand for the structures.

Adenosine receptor A2a, sequence (P30543 whole entry): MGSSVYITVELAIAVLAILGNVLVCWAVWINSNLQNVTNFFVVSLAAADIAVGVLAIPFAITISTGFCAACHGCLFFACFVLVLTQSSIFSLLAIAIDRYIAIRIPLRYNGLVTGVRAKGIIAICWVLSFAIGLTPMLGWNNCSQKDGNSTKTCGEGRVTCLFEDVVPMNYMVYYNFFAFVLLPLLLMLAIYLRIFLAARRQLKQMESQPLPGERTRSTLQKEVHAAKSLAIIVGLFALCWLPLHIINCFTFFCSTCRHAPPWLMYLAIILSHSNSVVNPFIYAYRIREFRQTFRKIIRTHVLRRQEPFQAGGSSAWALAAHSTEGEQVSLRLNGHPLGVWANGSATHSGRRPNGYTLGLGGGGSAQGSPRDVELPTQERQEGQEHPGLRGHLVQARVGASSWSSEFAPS
Description for Adenosine receptor A1: Binding affinity towards adenosine A1 receptor in rat brain cortex
Description for Adenosine receptor A2a: Binding affinity towards adenosine A2A receptor in rat brain striatum

For `COc1ccc(CCOc2nc(N)c3ncn(C4O[C@H](CO)[C@@H](O)[C@H]4O)c3n2)cc1OC` (stereo partly specified), the values for the Ki on Adenosine receptor A2a and on Adenosine receptor A1 were 40 nM and 380 nM, respectively.
The like results for `CCNC(=O)[C@H]1OC(n2cnc3c(N)nc(CC4CCC(C(=O)OC)CC4)nc32)[C@H](O)[C@@H]1O` (stereo partly specified) were, in that order, 4.5 nM and 28.1 nM.
The like results for `Nc1nc(Oc2ccccc2)nc2c1ncn2C1O[C@H](CO)[C@@H](O)[C@H]1O` (stereo partly specified) were, in that order, 5700 nM and 3500 nM.
In the case of `CCNC(=O)[C@H]1OC(n2cnc3c(N)nc(C#CNCCc4ccc(CC(=O)O)cc4)nc32)[C@H](O)[C@@H]1O` (stereo partly specified), the Ki was 45 nM on Adenosine receptor A2a and 4880 nM at Adenosine receptor A1.
The like results for `Nc1nc(OCCCCCc2ccccc2)nc2c1ncn2C1O[C@H](CO)[C@@H](O)[C@H]1O` (stereo partly specified) were, in that order, 53 nM and 960 nM.
As to `CC(C)COc1nc(N)c2ncn(C3O[C@H](CO)[C@@H](O)[C@H]3O)c2n1` (stereo partly specified), the inhibition constant Ki on Adenosine receptor A2a was 700 nM; at Adenosine receptor A1, 2600 nM.
In the case of `CCNC(=O)[C@H]1OC(n2cnc3c(N)nc(C#CNCCc4ccc(F)cc4)nc32)[C@H](O)[C@@H]1O` (stereo partly specified), the figures for the Ki on Adenosine receptor A2a and at Adenosine receptor A1 were 7.7 nM and 1180 nM, respectively.
Take `CCNC(=O)[C@H]1OC(n2cnc3c(N)nc(C#CNCCc4ccccc4)nc32)[C@H](O)[C@@H]1O` (stereo partly specified): the Ki on Adenosine receptor A2a was found to be 9.7 nM; on Adenosine receptor A1, 473 nM.

What is called Ki is the dissociation constant of the complex between target and ligand, obtained from inhibition or displacement. A lower Ki goes with higher affinity.
